# Data taken from patent publication US4342753A, “Carboxyalkyl derivatives of rutin poly(H-)sulfate” (American Cyanamid Company, priority 1981, dated 1982).
# Structures can show the parent of a compound that is named as a salt. Where two headings read alike, the source gives them in different places.
# Key:
# activated human C1 = molecular target: T1, activated human C1 (Homo sapiens, UniProt P09871); experiment: Test Code 026 (C1 inhibitor); assay type: biochemical; conditions: serial dilutions are twofold; higher well number indicates higher activity
# T1 sequence (P09871 16-437 limits assumed): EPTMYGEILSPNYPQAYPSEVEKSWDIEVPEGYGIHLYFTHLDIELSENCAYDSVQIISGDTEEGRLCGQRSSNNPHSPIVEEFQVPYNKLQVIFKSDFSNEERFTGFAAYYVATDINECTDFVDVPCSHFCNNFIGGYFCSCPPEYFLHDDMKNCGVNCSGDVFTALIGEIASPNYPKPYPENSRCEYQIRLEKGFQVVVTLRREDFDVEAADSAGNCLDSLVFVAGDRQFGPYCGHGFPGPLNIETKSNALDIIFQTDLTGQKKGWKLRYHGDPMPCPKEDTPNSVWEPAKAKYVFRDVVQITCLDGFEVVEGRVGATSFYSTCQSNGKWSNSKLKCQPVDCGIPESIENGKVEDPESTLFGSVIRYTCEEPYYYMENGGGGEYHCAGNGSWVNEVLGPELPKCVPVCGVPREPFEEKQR
# T1 sequence (P09871 438-688 limits assumed): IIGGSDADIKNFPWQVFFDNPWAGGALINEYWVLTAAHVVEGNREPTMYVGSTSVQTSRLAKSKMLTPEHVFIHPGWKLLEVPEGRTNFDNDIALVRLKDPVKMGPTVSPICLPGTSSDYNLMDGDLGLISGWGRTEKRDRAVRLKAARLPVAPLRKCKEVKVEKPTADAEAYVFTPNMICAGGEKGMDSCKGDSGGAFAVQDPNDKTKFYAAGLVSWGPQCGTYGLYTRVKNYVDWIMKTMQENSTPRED
# Procedure: (§1) An active inhibitor protects C2 from C1 and C4; (ii) Cap 50 Test--Here, appropriate amounts of the test compound are added to a pool of guinea pig serum in vitro, after which the undiluted serum capillary tube assay referred to above is run. The concentration of compound inhibiting 50% is reported; and (iii) Guinea Pig Intraperitoneal Test (GPIP)--Guinea pigs weighing about 300 g. are dosed intraperitoneally (i.p.) with 200 mg./kg. of the test compound dissolved in saline and adjusted to pH 7-8. Approximately 0.4 ml. blood samples, taken by orbital sinus puncture 30 minutes and one hour after injections, are collected directly into centrifuge tubes; 5 ml. blood samples, taken by decapitation 2 hours after injection are collected directly into beakers. The samples are allowed to clot, centrifuged, and the resultant sera are assayed for complement activity using the capillary complement assay. Percent inhibition are calculated by comparison with simultaneous controls.
# [1] = tested on: complement activity of sera; experiment: Guinea Pig Intraperitoneal Test (GPIP); conditions: Cavia porcellus, ip, 200 mg./kg. i.p., read-out: In vivo Activity (Guinea Pig) Intraperitoneal % Inhibition
# Procedure: as §1, with “[…],” for “taken by orbital sinus puncture 30 minutes and one hour after injections,”, “taken by decapitation 2 hours after injection are collected directly into” left out
# human serum complement = conditions: in vitro and in vivo; cited from earlier work
"In vitro Activity 026 (activity in wells, serial dilution assay) (activated human C1) [wells]",Compound,inhibition at 200 mg/kg ([1]; Time 2 hours) [%],inhibition at 200 mg/kg ([1]; Time 6 hours) [%],inhibition at 200 mg/kg ([1]; Time 24 hours) [%],anticomplementary activity (human serum complement)
10,"C[C@@H]1O[C@@H](OC[C@H]2O[C@@H](Oc3c(-c4ccc(OCC(=O)O)c(OS(=O)(=O)O)c4)oc4cc(OS(=O)(=O)O)cc(OS(=O)(=O)O)c4c3=O)[C@H](OS(=O)(=O)O)[C@@H](OS(=O)(=O)O)[C@@H]2OS(=O)(=O)O)[C@H](OS(=O)(=O)O)[C@H](OS(=O)(=O)O)[C@H]1OS(=O)(=O)O [4'-Carboxymethyl-rutin, nona(H-sulfate)decasodium salt]",82,69,18,–
11,"C[C@@H]1O[C@@H](OC[C@H]2O[C@@H](Oc3c(-c4ccc(OCC(=O)O)c(OS(=O)(=O)O)c4)oc4cc(OCC(=O)O)cc(OS(=O)(=O)O)c4c3=O)[C@H](OS(=O)(=O)O)[C@@H](OS(=O)(=O)O)[C@@H]2OS(=O)(=O)O)[C@H](OS(=O)(=O)O)[C@H](OS(=O)(=O)O)[C@H]1OS(=O)(=O)O [4',7-Bis(carboxymethyl)rutin, octa(H-sulfate), decasodium salt]",–,–,–,–
–,pentosanpolysulfoester,–,–,–,"has an anticomplementary activity on human serum, both in vitro and in vivo"
